“Also recorded” adds a separate entry of the source.
Tests used:
[1] = Solid stability evaluation of free acid Form A, Na salt Form A and L-arginine salt Form A, 2 weeks (Table 5-5); type: physicochemical; settings: for Form change: XRPD
[2] = Kinetic solubility in water, pH buffers and bio-relevant media at 37° C. (Table 5-6); type: physicochemical; settings: for pH: pH of solubility sample; for XRPD: residual solids
Procedure: Around 10 mg material was weighed into 5 mL water, buffer solution, SGF, FaSSIF or FeSSIF^1 followed by rolling at 25 rpm at 37° C. for 0.5 and 1 h. At each time point, around 0.8 mL suspension was sampled out for centrifugation and filtration. Solids were tested by XRPD.

[3] = Hygroscopicity, DVS evaluation of free acid Form A and re-prepared salts (Table 5-7); type: physicochemical; settings: for Form change after DVS: XRPD after DVS, * converted to a potential isomorphic hydrate by XRPD
Procedure: XRPD characterization was performed for the samples after DVS test.
DVS was measured via a SMS (Surface Measurement Systems) DVS Intrinsic. The relative humidity at 25° C. were calibrated against deliquescence point of LiCl, Mg(NO3)2 and KCl.

[4] = Dog pharmacokinetic study, Free Acid Form A, sodium salt Form A, L-arginine salt Form A in oral HPMC capsule (Table 8-5); type: in vivo; settings: 2 mg/kg, male Beagle dogs
Procedure: The objective of this study was to characterize the pharmacokinetics (PK) of Compound I in male Beagle dogs after oral (PO) or IV administration. […] The dose was administered orally by gavage to dogs. […] The plasma concentration of Compound I was determined by liquid chromatography with mass spectrometric detection (LC-MS/MS).

[5] = 25° C./92.5% RH, open container, 2 weeks
[6] = 40° C./75% RH, open container, 2 weeks
[7] = 60° C., tight container, 2 weeks
[8] = 50 mM acetate buffer (4.5), 0.5 h, 37° C.
[9] = alkaline borate buffer (8), 0.5 h, 37° C.
[10] = alkaline borate buffer (8), 1.0 h, 37° C.

Substance: 3-((1S,2S)-1-(2-((S)-3-(3-(4-(diethylphosphoryl)-3-(methylamino)phenyl)-2-oxo-2,3-dihydro-1H-imidazol-1-yl)-2-(4-fluoro-3,5-dimethylphenyl)-4-methyl-4,5,6,7-tetrahydro-2H-pyrazolo[4,3-c]pyridine-5-carbonyl)-5-(tetrahydro-2H-pyran-4-yl)-1H-indol-1-yl)-2-methylcyclopropyl)-1,2,4-oxadiazol-5(4H)-one sodium salt Form A [Compound I sodium salt Form A]
- Chemical and physical stability ([1]; 25° C./92.5% RH open, 40° C./75% RH open, 60° C. tight container, over 2 weeks, listed as Na salt Form A): chemically stable in these conditions but physically unstable at 25° C./92.5% RH and 40° C./75% RH
- Color Change [1, 5]: No
- HPLC purity (%) [1, 5]: 99.1%
- HPLC purity/initial (%) [1, 5]: >100%
- Form change ([1]; 25° C./92.5% RH, open container, 2 weeks, * Likely isomorphic hydrate): Yes*
- Color Change [1, 6]: No
- HPLC purity (%) [1, 6]: 99.1%
- HPLC purity/initial (%) [1, 6]: >100%
- Form change ([1]; 40° C./75% RH, open container, 2 weeks, * Likely isomorphic hydrate): Yes*
- Color Change [1, 7]: No
- HPLC purity (%) [1, 7]: 99.1%
- HPLC purity/initial (%) [1, 7]: >100%
- Form change [1, 7]: No
- HPLC purity (%) ([1]; Initial): 99.0%
- Solubility ([2]; 50 mM acetate buffer (4.5), 0.5 h, 37° C., LOQ = 0.500 μg/mL): <LOQ
- pH [2, 8]: (4.60)
- XRPD [2, 8]: AF^2
- Solubility ([2]; 50 mM acetate buffer (4.5), 1.0 h, 37° C., LOQ = 0.500 μg/mL): <LOQ
- pH ([2]; 50 mM acetate buffer (4.5), 1.0 h, 37° C.): (4.55)
- Solubility ([2]; 0.1N HCl (1.2), 0.5 h, 37° C., LOQ = 0.500 μg/mL): <LOQ
- pH ([2]; 0.1N HCl (1.2), 0.5 h, 37° C.): (0.95)
- Solubility ([2]; 0.1N HCl (1.2), 1.0 h, 37° C., LOQ = 0.500 μg/mL): <LOQ
- pH ([2]; 0.1N HCl (1.2), 1.0 h, 37° C.): (1.06)
- XRPD ([2]; 0.1N HCl (1.2), 1.0 h, 37° C.): AF^1
- Kinetic solubility, comparison between forms ([2]; 37° C., 0.5 and 1 h): higher than that of L-arginine salt Form A
- Solubility ([2]; FaSSIF (6.5), 0.5 h, 37° C.): 9.1 µg/mL
- pH ([2]; FaSSIF (6.5), 0.5 h, 37° C.): (6.53)
- XRPD ([2]; FaSSIF (6.5), 0.5 h, 37° C.): AF^3
- Solubility ([2]; FaSSIF (6.5), 1.0 h, 37° C.): 10.2 µg/mL
- pH ([2]; FaSSIF (6.5), 1.0 h, 37° C.): (6.60)
- XRPD ([2]; FaSSIF (6.5), 1.0 h, 37° C.): AF^3
- Solubility ([2]; FeSSIF (5.0), 0.5 h, 37° C.): 42.7 µg/mL
- pH ([2]; FeSSIF (5.0), 0.5 h, 37° C.): (4.98)
- Solubility ([2]; FeSSIF (5.0), 1.0 h, 37° C.): 40.9 µg/mL
- pH ([2]; FeSSIF (5.0), 1.0 h, 37° C.): (5.06)
- XRPD ([2]; FeSSIF (5.0), 1.0 h, 37° C.): AF^1
- Solubility ([2]; H2O, 0.5 h, 37° C.): 1907.0 µg/mL
- pH ([2]; H2O, 0.5 h, 37° C.): (8.50)
- Solubility ([2]; H2O, 1.0 h, 37° C.): 1742.2 µg/mL
- pH ([2]; H2O, 1.0 h, 37° C.): (8.34)
- Solubility ([2]; SGF (2.0), 0.5 h, 37° C.): 14.2 µg/mL
- pH ([2]; SGF (2.0), 0.5 h, 37° C.): (2.13)
- XRPD ([2]; SGF (2.0), 0.5 h, 37° C.): AF^1
- Solubility ([2]; SGF (2.0), 1.0 h, 37° C.): 15.8 µg/mL
- pH ([2]; SGF (2.0), 1.0 h, 37° C.): (2.17)
- XRPD ([2]; SGF (2.0), 1.0 h, 37° C.): AF^1
- Solubility [2, 9]: 179.0 µg/mL
- pH [2, 9]: (7.99)
- XRPD [2, 9]: AF^3
- Solubility [2, 10]: 164.2 µg/mL
- pH [2, 10]: (7.99)
- XRPD [2, 10]: AF^3
- Disproportionation after solubility study (XRPD) ([2]; solids after kinetic solubility test): disproportionation was observed
- Water uptake (@ 25° C./40-95% RH) ([3]; DVS, 25° C., 40-95% RH): 10.4%
- Form change after DVS ([3]; listed as Compound I Na salt Form A): converted to a new form; also recorded: form change was observed
- Form change after DVS ([3]; listed as Na salt Form A): Yes*
- Tmax (median) [4]: 2.0 h
- Tmax (range) [4]: [1.0-2.0] h
- Cmax ([4]; mean): 64.1 ng/mL
- AUClast ([4]; mean, t = 8 h): 198 h*ng/m:

— US20240360166A1, “SALTS AND SOLID FORMS OF A COMPOUND HAVING GLP-1 AGONIST ACTIVITY” (Gasherbrum Bio, Inc., priority 2022, published 2024)
